Experimental data: article PMC10670708, “A New Synthetic Curcuminoid Displays Antitumor Activities in Metastasized Melanoma” (Cells, 2023)
Where “and” joins values, the source holds several entries; their conditions need not be identical. Equal entries are not always repeated. Entries after “also recorded” stand apart in the source; their conditions may differ.

Legend:
[1] = test system: B16F10 murine melanoma cells; assay: Cytotoxicity assay (resazurin), B16F10; type: cell-based; conditions: for IC50: Mus musculus, B16-F10, 48 h, resazurin
Description: (§1) 3T3 murine fibroblasts (ATCC # CRL-1658), B16F10 murine melanoma cells (ATCC # CRL-6475) and RAW 264.7 murine macrophages (ATCC # TIB-71) were cultured in Dulbecco’s modified eagle’s high-glucose medium (Sigma Aldrich, Darmstadt, Germany) supplemented with 10% fetal bovine serum (FBS), 1% streptomycin–penicillin (Gibco, Darmstadt, Germany) and 1% L-glutamine (Gibco, Germany). AML12 murine hepatocytes (ATCC # CRL-2254) were cultivated in Dulbecco’s modified eagle’s F-12 Ham media supplemented as described above plus 10 µg/mL insulin, 5.5 µg/mL transferrin, 5 ng/mL selenium (all from Thermo Fisher Scientific, Braunschweig, Germany) and 40 ng/mL dexamethasone (Sigma Aldrich). All cells were maintained in a humidified incubator at 37 °C under 5% CO2. Cells were passaged when they reached semi-confluency. For detachment, cells were thoroughly rinsed with Dulbecco’s phosphate-buffered saline (PBS) without calcium and magnesium (Sigma Aldrich) and enzymatically treated using TrypLE™ Express (1×) (Gibco, Germany). FBS-containing medium was added to stop enzymatic activity.
(§2) A total of 1000 cells were seeded per well in 100 µL medium (for details, see above) using 96-well plates (Greiner Bio-On, Frickenhausen, Germany). After 24 h, curcumin, garcinol (both from Sigma Aldrich), MePip-SF5 and isogarcinol (synthesized as described previously) were added to the wells at concentrations ranging from 0.5 to 64 µM (6 wells per concentration step) and incubated at […] for 48 h. For the preparation of the compounds, drugs were dissolved in DMSO at a concentration of 40 mM for stock solutions and freshly diluted with PBS to a working stock of 4 mM on the day of the experiment.
(§3) After the incubation, resazurin (Sigma Aldrich) was dissolved in fully supplemented media and added to a final concentration of 25 µg/mL per well. After incubation for 3 h, the absorbance of resorufin (7-hydroxy-3H-phenoxazin-3-one), the enzymatic product of resazurin, in the wells was measured on an Infinite M200Pro spectrofluorometer (TECAN, Männedorf, Switzerland) at an excitation of 570 nm. Based on the determined dose–response curves, IC50 concentrations were calculated by Prism 10 (GraphPad Software Version 10.1.0, La Jolla, CA, USA) using nonlinear regression analysis after conversion of concentrations to logarithmic scale.

3T3 murine fibroblasts = assay: Cytotoxicity assay (resazurin), 3T3; type: cell-based; conditions: 3T3 fibroblasts; for IC50: Mus musculus, Fibroblast, 48 h, resazurin
Description: as §1, §2, §3

AML12 murine hepatocytes = assay: Cytotoxicity assay (resazurin), AML12; type: cell-based; conditions: Mus musculus, 48 h
Description: as §1, §2, §3

[2] = test system: RAW 264.7 murine macrophages; assay: Cytotoxicity assay (resazurin), RAW 264.7; type: cell-based; conditions: Mus musculus, RAW264.7, 48 h
Description: as §1, §2, §3

healthy C57BL/6 mice = assay: In vivo toxicity and dose finding; conditions: for maximum tolerated single dose without signs of acute toxicity: intraperitoneal, twice weekly, escalating doses, n = 2, weight loss and abnormal behavior
Description: Groups of 2 mice (C57BL/6) were challenged with increasing doses of MePip-SF5 or isogarcinol. Stock solutions of drugs (40 mM in DMSO, corresponding to 24 mg/mL for isogarcinol and 21 mg/mL for MePip-SF5) were freshly dissolved in PBS, yielding a total injection volume of 100 µL. Prepared drug solutions were intraperitoneally injected twice weekly (Monday and Friday) over 4 weeks. Drug doses were doubled each week, starting with 15 mg/kg body weight. Physical appearance and body weight were closely monitored. Toxic dose was defined as body weight loss of ≥10% in one week, abnormal behavior or when mice lost ≥5% of their body weight in two consecutive weeks.

[3] = test system: B16F10 pulmonary melanoma metastases; assay: In vivo antitumor therapy, pulmonary metastasis of B16F10 melanoma; parameters: species or system mice (C57BL/6); conditions: for pulmonary tumor load / antitumor effect: MePip-SF5 60 mg/kg, isogarcinol 15 mg/kg i.p. days 8, 11, 14, day 16, vs vehicle
Description: Eight-weeks-old female C57BL/6 mice (body weight ~20 g) were purchased from Charles River (Sulzfeld, Germany) and kept under 12 h light–dark cycles at 25 °C and 40–60% humidity with humane care. Mice had access to regular chow and water ad libitum. Pulmonary metastases were generated by tail vein injection. A total of 500,000 B16F10 cells were resuspended in sterile 100 µL PBS (cell viability > 90%) and injected into the tail vein of the mice while animals were immobilized in a mouse restrainer (G&P Kunststofftechnik, Kassel, Germany). At 8, 11 and 14 days after melanoma cell injection, groups of mice (n = 10) received an intraperitoneal injection of isogarcinol (15 mg/kg) or MePip-SF5 (60 mg/kg) of 200 µL, while non-treated control mice received equal volumes of PBS. At day 16, mice were sacrificed, and organs (lungs, liver, kidneys and spleen) and blood were sampled for further analysis. Tumor nodules of the left and right lobes of the lungs were macroscopically counted. Pictures of the lungs were taken with a Stemi 2000-C binocular (Carl Zeiss, Jena, Germany), and a mm scale was pictured to create a mm grid in ImageJ software (latest version 1.54f (National Institute of Health, Bethesda, MD, USA). In addition to surface lesion counts, tumors were categorized by their size into categories of <1 mm and <2 mm. Afterwards, both lobes were formalin fixed, paraffin embedded and sectioned (5 µm) to assess intrapulmonary tumor burden. Sections were stained with ready-to-use hematoxylin and eosin staining solution (Carl Roth, Karlsruhe, Germany) for 5 min at room temperature and washed in distilled water and 0.5% acetic acid. Per mouse, lungs were cut into 4–5 parts and then microtome thin-sectioned ([…]). Then, 4 lung sections were randomly selected and analyzed. Sections were tile-scanned with a Leica microscope (DMi8). Pictures were binarized and the percentage of healthy vs. tumor lung tissue measured by ImageJ software using an adjusted threshold setting. Data are expressed as means ± SD per mouse (n = 10 treated group; and n = 11 per control group).

C57BL/6 mice = assay: Safety laboratory and biometric parameters in treated metastasis-bearing mice; type: in vivo; conditions: for tolerability at the applied doses: MePip-SF5 60 mg/kg, isogarcinol 15 mg/kg i.p. ×3; for safety laboratory parameters (LDH, creatinine, urea, ALT, AST, GLDH, γ-GT, Bilirubin, ALP): serum, day 16
Description: (§4) At 8, 11 and 14 days after melanoma cell injection, groups of mice (n = 10) received an intraperitoneal injection of isogarcinol (15 mg/kg) or MePip-SF5 (60 mg/kg) of 200 µL, while non-treated control mice received equal volumes of PBS. At day 16, mice were sacrificed, and organs (lungs, liver, kidneys and spleen) and blood were sampled for further analysis.

[4] = test system: metastatic lung tissue transcripts; assay: RT-qPCR of transcripts in lung tissue of treated mice; type: in vivo, mice (C57BL/6); conditions: MePip-SF5 60 mg/kg, vs controls
Description: (§5) Total RNA was extracted via phenol extraction from cells using RNA-Solv® reagent (VWR International GmbH, Hessen, Germany) as described in the manual of the manufacturer. RNA was purified with the Monarch® Total RNA Miniprep Kit (New England BioLabs GmbH, Frankfurt am Main, Germany) following the manual of the manufacturer. For RNA extraction from lung tissue, the accessory lobe of the right lung was mechanically homogenized in 1 mL RNA-Solv® reagent using the Tissue Lyser II (Qiagen, Venlo, The Netherlands). A 100 µL amount of the suspension was mixed with 900 µL RNA-Solv® reagent, and total RNA extraction was performed using the Monarch® Total RNA Miniprep Kit as described in the manual of the manufacturer.
(§6) RNA content of the extracted solution was measured optically using the Infinite® 200 PRO spectrofluorometer (TECAN, Switzerland), and 25 ng RNA per reaction was used in the following analysis.
(§7) Transcript levels of β-Actin were used to normalize data and to control for RNA integrity. Samples were amplified with the Luna® Universal One-Step RT-qPCR Kit (New England BioLabs GmbH, Frankfurt am Main) and analyzed using a Step One Plus sequence amplification system from LifeTechnologies (Darmstadt, Germany). For normalization, results were expressed as the ratio of the copy numbers of the target gene divided by the number of copies of the housekeeping gene (β-Actin) within individual PCR runs.
as §4

[5] = test system: M2-polarized bone-marrow-derived macrophages; assay: Phenotype modulation of M2-polarized BMDM (RT-qPCR); type: cell-based, mice (C57BL/6); conditions: M2-polarized primary macrophages; for Ccl3 expression: half of RAW IC50
Description: Bone marrow was extracted from 8-weeks-old C57BL/6 mice (Charles River, Erkrat, Germany) and matured into primary macrophages in the presence of macrophage colony-stimulating factor (M-CSF). Briefly, mice were sacrificed by cervical dislocation, and the femurs and tibias were isolated under sterile conditions and rinsed with cold PBS supplemented with 2% heat-inactivated FBS and 1% penicillin/streptomycin using a 21G needle and a 10 mL syringe (Braun, Kronberg, Germany). Cell suspensions were passed through a 70 µm cell strainer (Milteny, Bergisch Gladbach, Germany). The remaining red blood cells were lysed with red cell lysis buffer (eBioscience, San Diego, CA, USA) and the resulting bone marrow cells resuspended in fully supplemented Iscove’s modified Dulbecco’s medium (Gibco) plus 25 ng/mL M-CSF (from a 1 mg/mL M-CSF stock solution in PBS, M-CSF, ImmunoTools, Friesoythe, Germany). Five million cells were cultured on bacterial culture plates (Sigma-Aldrich, Germany) in a total volume of 10 mL. After 4 days, half of the medium was substituted by fresh medium to yield primary macrophages after an additional 4 days.
For M2-type polarization, BMDM medium was exchanged for fresh medium containing 20 ng/mL IL-4 and 20 ng/mL IL-13 (ImmunoTools, Germany), and cells were incubated for 24 h. […] IC50 concentrations were calculated as described above for the cytotoxicity assays.
as §5, §6, §7

[6] = test system: various solid tumor cell lines (including colon cancer and glioblastoma cells); conditions: exceeded the activities of previous curcuminoids; cited from earlier work
[7] = test system: gemcitabine-resistant pancreatic cancer patients; parameters: method as in PMID 20859741; conditions: cited from earlier work

SMILES | IC50 [1] [µM] | IC50 (3T3 murine fibroblasts) [µM] | IC50 (AML12 murine hepatocytes) [µM] | IC50 [2] [µM] | maximum tolerated single dose without signs of acute toxicity (healthy C57BL/6 mice) [mg/kg] | pulmonary tumor load / antitumor effect [3] | tolerability at the applied doses (C57BL/6 mice) | safety laboratory parameters (LDH, creatinine, urea, ALT, AST, GLDH, γ-GT, Bilirubin, ALP) (C57BL/6 mice) | Ccl3 expression [5] | other results
CN1C/C(=C\c2ccc(S(F)(F)(F)(F)F)cc2)C(=O)/C(=C/c2ccc(S(F)(F)(F)(F)F)cc2)C1 [MePip-SF5, (E)-1-methyl-3,5-bis(4-pentafluorothiobenzylidene)-4-piperidone] | 2.8 | 0.7 | 2.3 | 1.3 | 60 | significantly (p < 0.05) lower; also recorded: robust antitumor effect | well tolerated | remained normal | upregulated | times more active than parent drug curcumin (3T3 murine fibroblasts; ratio of IC50): 10 ×; could be dosed more highly than isogarcinol (healthy C57BL/6 mice; ratio of tolerated doses): 8 ×; proportion of healthy lung tissue (morphometric, thin sections) ([3]; 60 mg/kg i.p. days 8, 11, 14, vs PBS-treated controls): significantly higher; numbers of macroscopic tumor nodules of size ≤ 1 mm in the lungs ([3]; i.p. days 8, 11, 14, sacrifice day 16, vs controls and isogarcinol-treated mice): significantly (p < 0.05) lower; Bax expression in lungs [4]: remained unchanged; Bcl2 expression in lungs [4]: remained unchanged; Hif1a expression in lungs [4]: did not affect; Il6 expression in lungs [4]: did not affect; Ki67 expression in lungs [4]: trend of reduced expression; Bub1 expression in lungs ([4]; 60 mg/kg): significantly (p < 0.05) reduced; also recorded: significantly downregulated; Ccl3 expression in lungs ([4]; 60 mg/kg): significantly (p < 0.05) reduced; Tnfa expression in lungs ([4]; 60 mg/kg): significantly (p < 0.05) reduced; Inos expression [5]: no effect; Ccl2 expression ([5]; effective dose of 0.6 µM): increased; antiproliferative activity [6]: high antiproliferative activity
COc1cc(/C=C/C(=O)CC(=O)/C=C/c2ccc(O)c(OC)c2)ccc1O [curcumin] | 13.8 | 6.8 | 10.8 | 5.5 | – | – | – | – | – | 1-year survival rate ([7]; 95% confidence interval 4.4–41.4%): 19%; median survival ([7]; 95% confidence interval 109–223 days): 161 days
C=C(C)[C@@H](CC=C(C)C)C[C@@]12C[C@@H](CC=C(C)C)C(C)(C)[C@@](CC=C(C)C)(C(=O)C(C(=O)c3ccc(O)c(O)c3)=C1O)C2=O [garcinol, reference compound] | 3.1 | 8.7 | 10.1 | 3.8 | – | – | – | – | not | –
CC(C)=CC[C@H]1C[C@@]23C[C@@H](CC=C(C)C)C(C)(C)[C@@](CC=C(C)C)(C(=O)C(C(=O)c4ccc(O)c(O)c4)=C2OC1(C)C)C3=O [isogarcinol] | 2.1 | 3.2 | 4.3 | 2.3 | 15 | ineffective; also recorded: failed to show activity | well tolerated | remained normal | increased | stronger activity than original substance garcinol [1]: 40% and ~ 40%
